According to ChEMBL document CHEMBL1201862, “PubChem BioAssay data set” (2004):
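48-hour exposure; five concentrations; linearly interpolated endpoints. GI50 = concentration required for 50% inhibition of growth.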 Activity calls are given as the source filed them. Cut-off read from the data, not from the text of the source: active = GI50 up to about 1.1 µM and inactive = higher.

Legend:
Test in all cases: NCI anticancer screen, dose series, 48 h
A498 = test system: A498
BT-549 = test system: BT-549
CAKI-1 = test system: CAKI-1
DU-145 = test system: DU-145
HCT-15 = test system: HCT-15
HOP-92 = test system: HOP-92
K562 = test system: K562
LOX IMVI = test system: LOX IMVI
MDA-MB-231 = test system: MDA-MB-231
Malme-3M = test system: Malme-3M
NCI-H460 = test system: NCI-H460
NCI-H522 = test system: NCI-H522
OVCAR-3 = test system: OVCAR-3
OVCAR-5 = test system: OVCAR-5
SF-539 = test system: SF-539
SK-OV-3 = test system: SK-OV-3
TK-10 = test system: TK-10
U-251 = test system: U-251
UACC-257 = test system: UACC-257
UACC-62 = test system: UACC-62

SMILES	GI50 (A498)	GI50 (BT-549)	GI50 (CAKI-1)	GI50 (DU-145)	GI50 (HCT-15)	GI50 (HOP-92)	GI50 (K562)	GI50 (LOX IMVI)	GI50 (MDA-MB-231)	GI50 (Malme-3M)	GI50 (NCI-H460)	GI50 (NCI-H522)	GI50 (OVCAR-3)	GI50 (OVCAR-5)	GI50 (SF-539)	GI50 (SK-OV-3)	GI50 (TK-10)	GI50 (U-251)	GI50 (UACC-257)	GI50 (UACC-62)
O=C1C(CN2CCCC2)CCCC1CN1CCCC1 (stereo not drawn)	20.7 µM (inactive)	1.87 µM (inactive)	1.64 µM (inactive)	19.8 µM (inactive)	2.19 µM	0.229 µM (active)	0.206 µM (active)	2.52 µM (inactive)	15.8 µM (inactive)	0.611 µM (active)	22.8 µM (inactive)	0.0495 µM (active)	5.01 µM (inactive)	5.98 µM (inactive)	7.36 µM (inactive)	17.4 µM (inactive)	2.19 µM (inactive)	19.6 µM (inactive)	2.1 µM (inactive)	16.9 µM (inactive)
Clc1ccc(OCc2nnc(CCCCCCCCc3nnc(COc4ccc(Cl)cc4)n3Nc3ccccc3)n2Nc2ccccc2)cc1	62.5 µM (inactive)	11.6 µM (inactive)	0.531 µM (active)	19.1 µM (inactive)	4.06 µM	21.4 µM (inactive)	0.343 µM (active)	21.7 µM (inactive)	26.2 µM (inactive)	12.5 µM (inactive)	2.71 µM (inactive)	2.82 µM (inactive)	14.2 µM (inactive)	2.74 µM (inactive)	0.962 µM (active)	17.1 µM (inactive)	23.7 µM (inactive)	23.5 µM (inactive)	7.35 µM (inactive)	0.895 µM (active)
COc1ccc(/C=C/C(=O)c2cccc(C(=O)/C=C/c3ccc(OC)c(OC)c3)n2)cc1OC	> 91.2 µM (inactive)	6.15 µM (inactive)	> 57.9 µM (inactive)	> 100 µM (inactive)	14 µM	> 100 µM (inactive)	3.69 µM (inactive)	2.02 µM (inactive)	25.4 µM (inactive)	24.5 µM (inactive)	96.8 µM (inactive)	4.75 µM (inactive)	> 54.8 µM (inactive)	29.6 µM (inactive)	14.4 µM (inactive)	> 100 µM (inactive)	> 100 µM (inactive)	6.52 µM (inactive)	39.6 µM (inactive)	21.7 µM (inactive)
c1csc(-c2cc(-c3ccsc3)c(-c3cccs3)s2)c1	> 100 µM (inactive)	46.2 µM (inactive)	> 100 µM (inactive)	> 100 µM (inactive)	44.1 µM	32.2 µM (inactive)	69.8 µM (inactive)		29.8 µM (inactive)	59.2 µM (inactive)	43.5 µM (inactive)	61.7 µM (inactive)	> 100 µM (inactive)	> 100 µM (inactive)	> 100 µM (inactive)		> 100 µM (inactive)	81.3 µM (inactive)	56.2 µM (inactive)	48.4 µM (inactive)
COC(=O)[C@@H](NC(=O)c1ccc(CNC(=O)/C(C)=C/c2ccccc2)cc1)C(C)C	> 100 µM (inactive)	> 100 µM (inactive)	> 100 µM (inactive)	> 100 µM (inactive)	> 100 µM	> 100 µM (inactive)	> 100 µM (inactive)	59.2 µM (inactive)	> 100 µM (inactive)	> 100 µM (inactive)	65 µM (inactive)	83.9 µM (inactive)	27.4 µM (inactive)	> 100 µM (inactive)	> 100 µM (inactive)	> 100 µM (inactive)	> 100 µM (inactive)	> 100 µM (inactive)	14.2 µM (inactive)	70 µM (inactive)
C/C=C\C1OC1(C)c1cc(=O)c2c(C)cc3c(c2o1)C(=O)c1c(O)c(C2CC(C)(N(C)C)C(OC(C)=O)C(C)O2)cc(C2CC(N(C)C)C(O)C(C)O2)c1C3=O (stereo not drawn)	0.00875 µM (active)	0.00596 µM (active)	< 0.00375 µM (active)	0.00405 µM (active)	0.00404 µM	0.00593 µM (active)	< 0.00375 µM (active)	< 0.00375 µM (active)	0.0067 µM (active)	0.0124 µM (active)	< 0.00375 µM (active)	< 0.00375 µM (active)	0.00451 µM (active)	0.00546 µM (active)	0.00433 µM (active)	0.00432 µM (active)	0.0113 µM (active)	< 0.00375 µM (active)	0.00984 µM (active)	< 0.00375 µM (active)
ClC1=NSSC1(Cl)Cl	> 100 µM (inactive)	41.6 µM (inactive)	18.5 µM (inactive)	> 100 µM (inactive)	18.4 µM	> 10 µM (inactive)	5.9 µM (inactive)	40.8 µM (inactive)	30.8 µM (inactive)	28.6 µM (inactive)	36.9 µM (inactive)	7.6 µM (inactive)	25.2 µM (inactive)	29.9 µM (inactive)	40.5 µM (inactive)			56.6 µM (inactive)	51.8 µM (inactive)	45.7 µM (inactive)
C/C(=N\NC1=NCCN1)c1cn(C2=NCCN2)nc1C	> 100 µM (inactive)	> 100 µM (inactive)	> 100 µM (inactive)	> 100 µM (inactive)	> 100 µM	97.1 µM (inactive)	59.6 µM (inactive)		> 100 µM (inactive)	> 100 µM (inactive)	> 100 µM (inactive)	> 100 µM (inactive)	> 100 µM (inactive)	> 100 µM (inactive)	> 100 µM (inactive)	> 100 µM (inactive)	> 100 µM (inactive)	> 100 µM (inactive)	> 100 µM (inactive)	> 100 µM (inactive)
O=C1CSC(c2cc3cc(Br)ccc3nc2Cl)N1c1ccc(F)c(Cl)c1 (stereo not drawn)	> 50 µM (inactive)	> 50 µM (inactive)	> 50 µM (inactive)	> 50 µM (inactive)	33 µM	> 50 µM (inactive)	18.6 µM (inactive)	22.9 µM (inactive)	> 50 µM (inactive)	> 50 µM (inactive)	40.8 µM (inactive)	33.1 µM (inactive)	> 50 µM (inactive)	> 50 µM (inactive)	17.3 µM (inactive)	> 50 µM (inactive)	> 50 µM (inactive)		> 50 µM (inactive)	> 50 µM (inactive)
COC(=O)c1ccccc1/C=C1\Cc2ccc3ccccc3c2C1C (stereo not drawn)	> 100 µM (inactive)	51.8 µM (inactive)	> 100 µM (inactive)	> 100 µM (inactive)	58.5 µM	67.9 µM (inactive)	37.6 µM (inactive)	> 100 µM (inactive)	> 100 µM (inactive)	53.7 µM (inactive)	> 100 µM (inactive)	16.6 µM (inactive)	25.6 µM (inactive)	13.2 µM (inactive)	> 100 µM (inactive)		> 100 µM (inactive)	> 100 µM (inactive)	48.9 µM (inactive)	57 µM (inactive)
CC(CO)(CO)/N=C/c1cc(I)cc(I)c1O	26.5 µM (inactive)	14 µM (inactive)	22.2 µM (inactive)	11.6 µM (inactive)	9.33 µM	14 µM (inactive)	27.1 µM (inactive)	10.3 µM (inactive)	18.7 µM (inactive)	13.1 µM (inactive)	22.2 µM (inactive)	19.1 µM (inactive)	9.79 µM (inactive)	22.3 µM (inactive)	14.5 µM (inactive)	13.6 µM (inactive)	26 µM (inactive)	12.8 µM (inactive)	20.9 µM (inactive)	16 µM (inactive)
COC(=O)c1c(C)cccc1/C=C1\Cc2cc(C)cc(C)c2C1=O	51.2 µM (inactive)	> 100 µM (inactive)	> 100 µM (inactive)	> 100 µM (inactive)	> 100 µM	17.9 µM (inactive)	> 100 µM (inactive)	> 100 µM (inactive)	> 100 µM (inactive)	> 100 µM (inactive)	98.4 µM (inactive)	11.2 µM (inactive)	50.6 µM (inactive)	> 100 µM (inactive)	35.1 µM (inactive)		27.2 µM (inactive)	15.3 µM (inactive)	> 100 µM (inactive)	10 µM (inactive)
CCOc1ccc(/N=C/C=C(\Cl)c2ccc3ccccc3c2)cc1	> 58.3 µM (inactive)	20.2 µM (inactive)	18.8 µM (inactive)	16.7 µM (inactive)	13.7 µM	15.3 µM (inactive)	8.55 µM (inactive)	6.58 µM (inactive)	15.4 µM (inactive)	14.2 µM (inactive)	20 µM (inactive)	19.5 µM (inactive)	15.2 µM (inactive)	17.8 µM (inactive)	21.2 µM (inactive)	19.7 µM (inactive)	17.5 µM (inactive)	17.5 µM (inactive)	15.9 µM (inactive)	15.8 µM (inactive)
C/C(=N\Nc1nc2ccccc2n1C)c1cc2ccccc2cn1	0.194 µM (active)	2.8 µM (inactive)	< 0.01 µM (active)	1.58 µM (inactive)	< 0.01 µM	0.321 µM (active)	< 0.0135 µM (active)	0.0305 µM (active)	< 0.01 µM (active)	< 0.01 µM (active)	0.0653 µM (active)	< 0.01 µM (active)			0.441 µM (active)	0.0339 µM (active)		< 0.0275 µM (active)	< 0.0105 µM (active)	0.0403 µM (active)
COc1ccc(NC(C(N)=O)c2cc3cc(Br)ccc3nc2Cl)cc1 (stereo not drawn)	> 100 µM (inactive)	31.4 µM (inactive)	> 100 µM (inactive)	> 100 µM (inactive)	47.5 µM	22.5 µM (inactive)	26.7 µM (inactive)	44.6 µM (inactive)	90.6 µM (inactive)	> 100 µM (inactive)	89.5 µM (inactive)	34 µM (inactive)	60.7 µM (inactive)	> 100 µM (inactive)	19.1 µM (inactive)	> 100 µM (inactive)	3.64 µM (inactive)		71.8 µM (inactive)	52.7 µM (inactive)
